In patent US20080249165A1, “Glycosides and Salts Thereof” (Ivax Drug Research Institute Ltd., priority 2004, published 2008):
Counter-ions that a name gives are not always drawn. Like-named read-outs stand apart in the source and are kept apart here.

Tests used:
BN-rats = test: Airways' hyper-responsiveness ex vivo: tracheal contraction to acetylcholine after antigen challenge and intratracheal pretreatment (Model 1); assay type: in vivo, rat; details: for MAX** Contraction at maximal Ach concentration relative to control (mean ± SEM) / ED50* log M acetylcholine (Ach), causing 50% contraction relative to control (mean ± SEM): trachea 48 h post challenge; for ED50* log M acetylcholine (Ach), causing 50% contraction relative to control (mean ± SEM): sensitized BN rats
Protocol: Brown Norway (BN) rats were actively sensitized to ovalbumin (OA) by a subcutaneous injection of 0.5 ml of OA/Al(OH)3 gel mixture (2 mg OA+10 g Al(OH)3/100 ml saline) on day 1 with subsequent subcutaneous injections (10 mg OA+10 g Al(OH)3/100 ml saline) given on days 14 and 21. On day 28, animals received the compound described in the first example intratracheally (0.001; 0.01; 0.1 or 1.0 mg/kg dose) 2 hours before antigen challenge. Antigen challenge was performed by inhalation of nebulised ovalbumin (1% antigen solution administered in a TSE inhalation system for 1 hour). Animals were sacrificed 48 hours post antigen challenge wherein the tracheas were removed to an organ bath. Dissected tracheas were allowed to equilibrate for 30 minutes before measuring tracheal spasmogenic response curves to acetylcholine (Ach).

BN rats [1] = test: Extent of perivascular oedema developed in asthmatic lung tissue (Model 3); assay type: in vivo, rat; details: for Oedema* area of oedema relative to area of vasculature (average ± SEM): lungs 48 hours after challenge
Protocol: Sensitized BN rats were treated intratracheally with varying (0.001-1.0 mg/kg) dose of compound described in the first example, two hours before antigenic challenge, using a similar protocol described in Model 1. Lungs were collected 48 hours after challenge and were fixed in 8% phosphate buffered formaldehyde. Samples were then processed for histochemistry routinely. 5 μm thick sections were stained with periodic-acid-Schiff (PAS) reagents and were counterstained with haematoxylin-eosine. On the sections the area of the connective tissue around the vasculare was determined and expressed as a ratio of the area of the corresponding blood vessel itself.

BN rats [2] = test: Allergen stimulated mucus production of airways epithelial cells (Model 2); assay type: in vivo, rat; details: for number of PAS(+) cells as percent of total number of cells (average ± SEM): lungs 48 hours after challenge
Protocol: Sensitized BN rats were treated intratracheally with varying (0.001-1.0 mg/kg) dose of compound described in the first example, two hours before antigenic challenge, using a similar protocol described in Model 1. Lungs were collected 48 hours after challenge and were fixed in 8% phosphate buffered formaldehyde. Samples were then processed for histochemistry routinely. 5 μm thick sections were stained with periodic-acid-Schiff (PAS) reagents and were counterstained with haematoxylin-eosine. On the sections each epithelial cells of the airways were counted in the whole preparation at a magnification of 400×. The number of PAS(+) [mucus producing] epithelial cells was expressed as the ratio of the total number of epithelial cells.

BN rats [3] = test: Extent of peribronchial eosinophilia developed in asthmatic lung tissue (Model 4); assay type: in vivo, rat; details: for peribronchial eosinophil number per visual field (average ± SEM): lungs 48 hours after challenge
Protocol: Sensitized BN rats were treated intratracheally with varying (0.001-1.0 mg/kg) dose of compound described in the first example, two hours before antigenic challenge, using a similar protocol described in Model 1. Lungs were collected 48 hours after challenge and were fixed in 8% phosphate buffered formaldehyde. Samples were then processed for histochemistry routinely. 5 μm thick sections were stained with May Gruenvald Giemsa and the number of eosinophils, situated peribronchially, was determined.

IP-3 receptor = target: T1, IP-3 receptor (Rattus norvegicus, UniProt P29994); test: IP-3 receptor antagonistic effect: inhibition of IP3 binding in rat cerebellum membrane preparations (Model 5)
T1 construct: from tissue; host or cells: rat cerebellum (microsomal membrane preparation)
Protocol: The polysulfated glycosides of the present invention, depending on their chemical structure, inhibit the binding of inositol-1,4,5-trisphosphate (IP3) to its receptor in microsomal membrane preparations. As IP3 is a messenger molecule playing distinguished role in the activation of different cells, interfering with this function can explain the anti-asthmatic effect of these polysulfated glycosides. The IP3 antagonist effect of the polysulfated glycosides was determined using rat cerebellum membrane preparations according to Worley et al. (JBC 262, 12132, 1987).

[4] = 0.001 mg/kg intratracheally 2 hours before antigen challenge
[5] = 0.1 mg/kg intratracheally 2 hours before antigen challenge
[6] = 0.001 mg/kg intratracheally two hours before antigenic challenge
[7] = 0.1 mg/kg intratracheally two hours before antigenic challenge
[8] = read-out: IC50 (μg/ml) Average ± SEM (n) (converted)

T1 sequence (P29994 whole entry): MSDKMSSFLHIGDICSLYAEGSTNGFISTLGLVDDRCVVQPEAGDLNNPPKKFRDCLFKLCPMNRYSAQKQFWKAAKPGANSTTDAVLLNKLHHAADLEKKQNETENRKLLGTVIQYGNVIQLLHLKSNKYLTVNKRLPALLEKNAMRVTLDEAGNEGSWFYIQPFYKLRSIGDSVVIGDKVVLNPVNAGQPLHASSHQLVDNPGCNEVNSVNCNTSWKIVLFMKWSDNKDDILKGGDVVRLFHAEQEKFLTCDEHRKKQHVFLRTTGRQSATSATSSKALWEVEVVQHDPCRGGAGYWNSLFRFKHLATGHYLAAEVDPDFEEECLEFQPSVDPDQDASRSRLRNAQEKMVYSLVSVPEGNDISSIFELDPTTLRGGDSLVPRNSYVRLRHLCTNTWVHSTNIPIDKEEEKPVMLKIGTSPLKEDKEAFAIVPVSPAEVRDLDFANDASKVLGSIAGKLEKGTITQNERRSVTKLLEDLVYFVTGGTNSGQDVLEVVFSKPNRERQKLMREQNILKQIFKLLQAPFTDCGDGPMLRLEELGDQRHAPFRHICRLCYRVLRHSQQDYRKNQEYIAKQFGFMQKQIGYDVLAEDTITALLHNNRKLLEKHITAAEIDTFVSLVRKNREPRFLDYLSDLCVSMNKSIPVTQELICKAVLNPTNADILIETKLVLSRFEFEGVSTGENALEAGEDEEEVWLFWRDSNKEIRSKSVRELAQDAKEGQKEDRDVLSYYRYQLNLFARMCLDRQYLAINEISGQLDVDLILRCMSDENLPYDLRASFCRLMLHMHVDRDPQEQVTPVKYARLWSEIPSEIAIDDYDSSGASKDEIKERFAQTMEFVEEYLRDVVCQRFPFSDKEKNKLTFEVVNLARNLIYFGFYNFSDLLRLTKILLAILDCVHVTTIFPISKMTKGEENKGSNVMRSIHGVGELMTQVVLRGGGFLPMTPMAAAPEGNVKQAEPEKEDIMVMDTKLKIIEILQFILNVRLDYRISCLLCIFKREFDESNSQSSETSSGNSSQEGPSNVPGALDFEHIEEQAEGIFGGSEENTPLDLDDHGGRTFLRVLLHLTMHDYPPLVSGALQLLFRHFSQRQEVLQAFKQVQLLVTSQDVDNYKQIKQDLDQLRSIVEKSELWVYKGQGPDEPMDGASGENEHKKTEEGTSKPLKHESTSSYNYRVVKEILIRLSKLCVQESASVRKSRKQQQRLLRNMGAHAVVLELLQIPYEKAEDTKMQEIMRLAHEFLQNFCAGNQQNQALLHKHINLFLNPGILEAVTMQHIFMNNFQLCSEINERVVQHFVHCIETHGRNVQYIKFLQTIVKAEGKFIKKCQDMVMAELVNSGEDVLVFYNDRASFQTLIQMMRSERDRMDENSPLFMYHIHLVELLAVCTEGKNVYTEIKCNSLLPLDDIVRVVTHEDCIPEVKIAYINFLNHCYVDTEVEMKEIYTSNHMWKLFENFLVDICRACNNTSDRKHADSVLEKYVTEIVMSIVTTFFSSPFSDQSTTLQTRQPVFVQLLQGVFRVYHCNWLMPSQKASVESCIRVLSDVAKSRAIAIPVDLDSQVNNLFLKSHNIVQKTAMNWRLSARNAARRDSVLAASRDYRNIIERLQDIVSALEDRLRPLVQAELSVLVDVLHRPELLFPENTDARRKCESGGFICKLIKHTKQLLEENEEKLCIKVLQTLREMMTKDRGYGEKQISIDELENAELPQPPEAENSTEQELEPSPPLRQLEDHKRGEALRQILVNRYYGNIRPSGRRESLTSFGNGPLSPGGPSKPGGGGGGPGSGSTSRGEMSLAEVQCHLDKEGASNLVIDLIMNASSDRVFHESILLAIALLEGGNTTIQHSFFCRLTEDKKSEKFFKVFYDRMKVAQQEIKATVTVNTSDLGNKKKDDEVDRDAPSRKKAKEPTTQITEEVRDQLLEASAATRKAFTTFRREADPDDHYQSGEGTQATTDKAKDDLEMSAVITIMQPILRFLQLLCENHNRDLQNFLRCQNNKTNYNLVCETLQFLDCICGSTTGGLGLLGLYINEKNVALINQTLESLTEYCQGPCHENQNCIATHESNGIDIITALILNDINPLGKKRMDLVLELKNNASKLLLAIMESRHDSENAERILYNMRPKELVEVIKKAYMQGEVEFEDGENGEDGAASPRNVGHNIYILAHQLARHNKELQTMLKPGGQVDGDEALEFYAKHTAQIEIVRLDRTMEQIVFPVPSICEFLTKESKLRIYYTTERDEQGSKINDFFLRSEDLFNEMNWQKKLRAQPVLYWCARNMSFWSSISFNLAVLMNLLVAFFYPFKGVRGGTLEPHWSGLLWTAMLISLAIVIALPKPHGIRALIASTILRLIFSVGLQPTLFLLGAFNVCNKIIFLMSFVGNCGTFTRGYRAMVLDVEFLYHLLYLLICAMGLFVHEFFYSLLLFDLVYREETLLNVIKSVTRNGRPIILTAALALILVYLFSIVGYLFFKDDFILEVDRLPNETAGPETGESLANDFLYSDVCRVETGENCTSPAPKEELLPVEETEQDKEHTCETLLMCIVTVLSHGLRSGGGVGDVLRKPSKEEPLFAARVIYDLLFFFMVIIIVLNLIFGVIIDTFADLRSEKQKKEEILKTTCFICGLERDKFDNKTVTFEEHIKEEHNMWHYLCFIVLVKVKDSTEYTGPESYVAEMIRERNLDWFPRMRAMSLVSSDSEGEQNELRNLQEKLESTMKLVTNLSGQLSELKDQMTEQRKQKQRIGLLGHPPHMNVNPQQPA

| SMILES | IC50 (IP-3 receptor; read-out: Average IC50) | IC50 (IP-3 receptor; [8]) | also measured |
| --- | --- | --- | --- |
| O=S(=O)(O)OC[C@H]1O[C@H](COS(=O)(=O)O)[C@@H](OS(=O)(=O)O)[C@@H]1O[C@@H]1OC[C@H](OS(=O)(=O)O)[C@H](OS(=O)(=O)O)[C@H]1OS(=O)(=O)O [Example 4, 2,5-Anhydro-1,4,6-tri-O-sulfato-3-O-(2,3,4-tri-O-sulfato-α-L-arabinopyranosyl)-D-mannitol hexa potassium salt] | 20.3 µM | 26.3 µM | – |
| O=S(=O)(O)OC[C@H]1O[C@@H](O[C@H]2[C@H](OS(=O)(=O)O)[C@@H](COS(=O)(=O)O)O[C@@H]2COS(=O)(=O)O)[C@H](OS(=O)(=O)O)[C@@H](OS(=O)(=O)O)[C@@H]1O[C@H]1O[C@H](COS(=O)(=O)O)[C@@H](OS(=O)(=O)O)[C@H](OS(=O)(=O)O)[C@H]1OS(=O)(=O)O [Example 6, 2,5-Anhydro-1,4,6-tri-O-sulfato-3-O-(2,3,6,2′,3′,4′,6′-hepta-O-sulfato-β-D-maltosyl)-D-mannitol deca potassium salt] | 0.222 µM | 0.287 µM | – |
| O=S(=O)(O)OC[C@H]1O[C@@H](OC[C@H]2O[C@@H](O[C@H]3[C@H](OS(=O)(=O)O)[C@@H](COS(=O)(=O)O)O[C@@H]3COS(=O)(=O)O)[C@H](OS(=O)(=O)O)[C@@H](OS(=O)(=O)O)[C@@H]2OS(=O)(=O)O)[C@H](OS(=O)(=O)O)[C@@H](OS(=O)(=O)O)[C@@H]1OS(=O)(=O)O [Example 7, 2,5-Anhydro-1,4,6-tri-O-sulfato-3-O-[6-O-(2,3,4,6-tetra-O-sulfato-β-D-glucopyranosido)-2,3,4-tetra-O-sulfato-β-D-glucopyranosyl]-D-mannitol deca potassium salt] | 0.24 µM | 0.31 µM | – |
| O=S(=O)(O)OC[C@H]1O[C@@H](OC[C@H]2O[C@H](CO[C@@H]3O[C@H](COS(=O)(=O)O)[C@@H](OS(=O)(=O)O)[C@H](OS(=O)(=O)O)[C@H]3OS(=O)(=O)O)[C@@H](OS(=O)(=O)O)[C@@H]2OS(=O)(=O)O)[C@H](OS(=O)(=O)O)[C@@H](OS(=O)(=O)O)[C@@H]1OS(=O)(=O)O [Example 8, 2,5-Anhydro-3,4-di-O-sulfato-1,6-bis-O-(2,3,4,6-tetra-O-sulfato-β-D-glucopyranosyl)-D-mannitol deca potassium salt] | 0.539 µM | 0.698 µM | – |
| O=S(=O)(O)OCC1OC(OCC2OC(OCC3OC(COC4OC(COC5OC(COS(=O)(=O)O)C(OS(=O)(=O)O)C(OS(=O)(=O)O)C5OS(=O)(=O)O)C(OS(=O)(=O)O)C(OS(=O)(=O)O)C4OS(=O)(=O)O)C(OS(=O)(=O)O)C3OS(=O)(=O)O)C(OS(=O)(=O)O)C(OS(=O)(=O)O)C2OS(=O)(=O)O)C(OS(=O)(=O)O)C(OS(=O)(=O)O)C1OS(=O)(=O)O [Example 9, 2,5-Anhydro-3,4-di-O-sulfato-1,6-bis-[(6-O-2,3,4,6-tetra-O-sulfato-β-D-glucopyranosido)-2,3,4-tri-O-sulfato-β-D-glucopyranosyl]-D-mannitol hexadeca potassium salt] | 0.115 µM | 0.148 µM | – |
| O=S(=O)(O)OC[C@H]1O[C@@H](OC[C@H]2O[C@H](CO[C@@H]3O[C@H](COS(=O)(=O)O)[C@@H](OS(=O)(=O)O)[C@H](OS(=O)(=O)O)[C@H]3OS(=O)(=O)O)[C@@H](OS(=O)(=O)O)[C@@H]2O[C@@H]2O[C@H](COS(=O)(=O)O)[C@@H](OS(=O)(=O)O)[C@H](OS(=O)(=O)O)[C@H]2OS(=O)(=O)O)[C@H](OS(=O)(=O)O)[C@@H](OS(=O)(=O)O)[C@@H]1OS(=O)(=O)O [Example 10, 2,5-Anhydro-4-O-sulfato-1,3,6-tris-O-(2,3,4,6-tetra-O-sulfato-β-D-glucopyranosyl)-D-mannitol trideca potassium salt] | 0.137 µM | 0.177 µM | – |

Further lines, with some results ahead:

| IC50 (IP-3 receptor; read-out: Average IC50) | IC50 (IP-3 receptor; [8]) | SMILES | also measured |
| --- | --- | --- | --- |
| 1.49 µM | 1.75 µM | O=S(=O)(O)OCC1OC(COS(=O)(=O)O)C(OS(=O)(=O)O)C1OC1OC(COS(=O)(=O)O)C(OS(=O)(=O)O)C(OS(=O)(=O)O)C1OS(=O)(=O)O [Example 1, 2,5-Anhydro-1,4,6-tri-O-sulfato-3-O-(2,3,4,6-tetra-O-sulfato-α-L-idopyranosyl)-D-mannitol hepta sodium salt] | MAX** Contraction at maximal Ach concentration relative to control (mean ± SEM) (BN-rats; [4]): 166 ± 41; ED50* log M acetylcholine (Ach), causing 50% contraction relative to control (mean ± SEM) (BN-rats; [4]): 5.78 ± 0.30 log M; MAX** Contraction at maximal Ach concentration relative to control (mean ± SEM) (BN-rats; [5]): 99 ± 16; ED50* log M acetylcholine (Ach), causing 50% contraction relative to control (mean ± SEM) (BN-rats; [5]): 4.70 ± 0.37 log M; tracheal hyper-reactivity to acetylcholine after ovalbumin challenge (in words) (BN-rats; dose of 0.1 mg/kg, 48 h after antigen challenge): brought this elevation back to control level; Oedema* area of oedema relative to area of vasculature (average ± SEM) (BN rats [1]; [6]): 41 ± 6; Oedema* area of oedema relative to area of vasculature (average ± SEM) (BN rats [1]; [7]): 53 ± 6; extent of aedema around the vasculature (in words) (BN rats [1]; smallest dose): significantly decreased; number of PAS(+) cells as percent of total number of cells (average ± SEM) (BN rats [2]; [6]): 35.2 ± 3.5%; number of PAS(+) cells as percent of total number of cells (average ± SEM) (BN rats [2]; [7]): 17.5 ± 2.4%; number of PAS(+), mucus producing cells (in words) (BN rats [2]; dose of 0.1 mg/kg): significantly decreased; peribronchial eosinophil number per visual field (average ± SEM) (BN rats [3]; [6]): 74 ± 2; peribronchial eosinophil number per visual field (average ± SEM) (BN rats [3]; [7]): 25 ± 2; number of peribronchially situated eosinophils in the lung (in words) (BN rats [3]; higher doses): the decrease become statistically significant; number of peribronchially situated eosinophils in the lung (in words) (BN rats [3]; smallest dose): decreases the extent of it |
| 4.81 µM | 5.65 µM | O=S(=O)(O)OCC1OC(COS(=O)(=O)O)C(OS(=O)(=O)O)C1OC1OC(COS(=O)(=O)O)C(OS(=O)(=O)O)C(OS(=O)(=O)O)C1OS(=O)(=O)O [Example 2, 2,5-Anhydro-1,4,6-tri-O-sulfato-3-O-(2,3,4,6-tetra-O-sulfato-α-L-idopyranosyl)-D-mannitol hepta potassium salt] | – |
| 1.39 µM | 1.21 µM | O=S(=O)(O)OC[C@H]1O[C@@H](O[C@H]2[C@H](OS(=O)(=O)O)[C@@H](COS(=O)(=O)O)O[C@@H]2COS(=O)(=O)O)[C@H](OS(=O)(=O)O)[C@@H](OS(=O)(=O)O)[C@@H]1OS(=O)(=O)O [Example 3, 2,5-Anhydro-1,4,6-tri-O-sulfato-3-O-(2,3,4,6-tetra-O-sulfato-β-D-glucopyranosyl)-D-mannitol hepta sodium salt] | – |
| 26.5 µM | 34.3 µM | O=S(=O)(O)OC[C@H]1O[C@H](COS(=O)(=O)O)[C@@H](OS(=O)(=O)O)[C@@H]1O[C@H]1OC[C@@H](OS(=O)(=O)O)[C@@H](OS(=O)(=O)O)[C@@H]1OS(=O)(=O)O [Example 5, 2,5-Anhydro-1,4,6-tri-O-sulfato-3-O-(2,3,4-tri-O-sulfato-α-D-arabinopyranosyl)-D-mannitol hexa potassium salt] | – |
